Laboratory results: patent EP0548370A1, “DRUG FOR PREVENTING AND/OR TREATING ALLERGIC DISEASE” (MOCHIDA PHARMACEUTICAL CO., LTD., priority 1991, dated 1993)

What was measured:
IgM antibodies = assay: Effect on IgM antibody production in ovalbumin-sensitized mice (ELISA); type: in vivo, BALB/c line male mice; settings: for IgM antibody yield (% control): 7 times, blood 14 days after sensitization
Protocol: (§1) That is, 4 mg of aluminum hydroxide to which 10 µg of ovalbumin has been adsorbed was intraperitoneally administered to 5 individuals per group of BALB/c line male mice (body weight, 21 - 25 g) to effect sensitization. Immediately after the sensitization, a 5% acacia aqueous solution containing a varied concentration of tofisopam or a 5% acacia aqueous solution containing no tofisopam (control) was administered orally once a day, 7 times in total. After 14 days of the sensitization, blood samples were collected to measure produced amounts of various types of immunoglobulin by means of enzyme-linked immunosorbent assay (ELISA). Production yields of IgG₁ and IgM antibodies were measured in the following manner. That is, a blood plasma sample was added to immobilized anti-mouse IgG₁ or IgM antibodies to allow IgG₁ antibodies or IgM antibodies to be linked, followed by the reaction with horseradish peroxidase-labeled anti-mouse IgG₁ antibodies or horseradish peroxidase-labeled anti-mouse IgM antibodies, and then the amount of produced IgG₁ or IgM antibodies was measured based on the horseradish peroxidase activity as a marker.

chronic urticaria [1] = settings: of 14 cases; with antihistaminic drug, Chinese orthodox medicine and the like; cited from earlier work
[2] = in vivo; cited from earlier work
chronic urticaria [3] = settings: of 2 cases; cited from earlier work
IgE antibodies = assay: Effect on IgE antibody production in ovalbumin-sensitized mice (ELISA); type: in vivo, BALB/c line male mice; settings: for IgE antibody yield (% control): 7 times, blood 14 days after sensitization
Protocol: That is, 4 mg of aluminum hydroxide to which 10 μg of ovalbumin has been adsorbed was intraperitoneally administered to 5 individuals per group of BALB/c line male mice (body weight, 21 - 25 g) to effect sensitization. Immediately after the sensitization, a 5% acacia aqueous solution containing a varied concentration of tofisopam or a 5% acacia aqueous solution containing no tofisopam (control) was administered orally once a day, 7 times in total. After 14 days of the sensitization, blood samples were collected to measure produced amounts of various types of immunoglobulin by means of enzyme-linked immunosorbent assay (ELISA). Production yield of IgE antibodies was measured in the following manner. That is, a blood plasma sample was added to immobilized anti-mouse IgE antibodies to allow IgE to be linked, followed by the reaction with biotin-labeled anti-mouse IgE antibodies and avidin-labeled horseradish peroxidase, and then the amount of produced IgE antibodies was measured based on the horseradish peroxidase activity as a marker (Men'eki-to-[…], vol.15, pp.211 - 216, 1988).

bronchial asthma = settings: 16 cases of bronchial asthma patients; cited from earlier work
IgG₁ antibodies = assay: Effect on IgG₁ antibody production in ovalbumin-sensitized mice (ELISA); type: in vivo, BALB/c line male mice; settings: for IgG₁ antibody yield (% control): 7 times, blood 14 days after sensitization
Protocol: as §1

[4] = test system: psychogenic bronchial asthma; settings: of 26 cases; with simultaneous β₂ stimulant and theophylline preparation; cited from earlier work
rat experimental asthma = assay: Rat experimental asthma, airway resistance by over flow technique; type: in vivo, Wister line male rats
Protocol: That is, 2 x 10¹⁰ cells of inactivated Bordetella pertussis and 1 mg of ovalbumin were respectively administered intraperitoneally and intramuscularly to 5 individuals per group of Wister line male rats (body weight, 194 - 210 g) to effect sensitization. Immediately after the sensitization, a 5% acacia aqueous solution containing a varied concentration of tofisopam or a 5% acacia aqueous solution containing no tofisopam (control) was administered orally once a day, 14 times in total.
After 14 days of the sensitization, ovalbumin was administered to the sensitized rats intravenously at a dose of 0.5 mg/kg, and the increasing degree of airway resistance was measured by means of the over flow technique (Arch. Exp. Pathol. Pharmak., vol.195, pp.71 - 74, 1974). The thus obtained inhibition rate of airway contraction, when the result of the control test is defined as 100, is shown in Table 4.

[5] = 100 mg/kg/day orally once a day
[6] = 300 mg/kg/day orally once a day
[7] = 100 or 300 mg/kg/day orally for 7 days

CCC1C(C)=NN=C(c2ccc(OC)c(OC)c2)c2cc(OC)c(OC)cc21 (stereo not drawn) [Tofisopam, 1-(3,4-dimethoxyphenyl)-5-ethyl-7,8-dimethoxy-4-methyl-5H-2,3-benzodiazepine]
IgM antibody yield (% control) (IgM antibodies; [5]): 97 % control | IgM antibody yield (% control) (IgM antibodies; [6]): 87 % control | influence upon the production of IgM antibodies (IgM antibodies; [7]): hardly exerts influence | cases improved (chronic urticaria [1]): 8 | acute, subacute and chronic toxicities [2]: confirmed safety of the compound | cases improved significantly (chronic urticaria [3]): 1 | IgE antibody yield (% control) (IgE antibodies; [5]): 66 % control | IgE antibody yield (% control) (IgE antibodies; [6]): 56 % control | inhibition at 100 mg/kg (IgE antibodies; Mus musculus, po, 168 h, 100 mg/kg/day orally for 7 days): ~34% | inhibition at 300 mg/kg (IgE antibodies; Mus musculus, po, 168 h, 300 mg/kg/day orally for 7 days): ~44% | efficacy in objective findings (bronchial asthma): 25% | efficacy in subjective symptoms (bronchial asthma): 50% | IgG₁ antibody yield (% control) (IgG₁ antibodies; [5]): 113 % control | IgG₁ antibody yield (% control) (IgG₁ antibodies; [6]): 111 % control | influence upon the production of IgG₁ antibodies (IgG₁ antibodies; [7]): hardly exerts influence | cases improved [4]: one | airway reaction (rat experimental asthma; 100 mg/kg/day orally for 14 days): can inhibit the airway reaction | Inhibition rate (%) of airway contraction (rat experimental asthma; 100 mg/kg/day orally once a day, 14 times, ovalbumin 0.5 mg/kg intravenously 14 days after sensitization): 27%
